Drawing on US20160257651A1, “NOVEL COMPOUND WITH ANTIBACTERIAL ACTIVITY” (priority 2013, published 2016), this text covers MIC for 1 molecule.

Each structure is given as a SMILES string. Values after ≈ are worked out from the molar mass of the structure shown.

For the first assay, the system named is S. pneumoniae KBSP11. Put plainly: MIC against pneumococcus, CAMHB with 5 mass % LHB. The assay is classed as cell-based, Streptococcus pneumoniae. The following applies: Streptococcus pneumoniae; S. pneumoniae KBSP11, PRSP, quinolone-susceptible; read-out: MIC. As to the method: (§1) The S. pneumoniae strains used for this test belong to any one of the categories of penicillin-susceptible pneumococcus (penicillin-susceptible Streptococcus pneumoniae, PSSP), penicillin-intermediate pneumococcus (penicillin-intermediate Streptococcus pneumoniae, PISP), and penicillin-resistant pneumococcus (penicillin-resistant Streptococcus pneumoniae, PRSP).
(§2) The lysed horse blood was prepared by adding sterilized water to horse sterile defibered blood (produced by Nippon Bio-Supp. Center) at a ratio of 1:1, subjecting the mixture to freezing and thawing 5 times, then centrifuging the mixture twice at 10,000 rpm for 20 minutes, and filtering the supernatant through a filter.
(§3) The S. pneumoniae strains mentioned in Table 11 were each cultured overnight at 37° C. on a blood agar medium as stationary culture. The blood agar medium was prepared by adding 5 mass % ovine sterile defibered blood (produced by Nippon Bio-Supp. Center) to a heart infusion agar medium (produced by EIKEN CHEMICAL). Each S. pneumoniae strain cultured overnight at 37° C. as stationary culture was further subcultured overnight at 37° C. on fresh blood agar medium as stationary culture. After completion of the culture, cells of each pneumococcus strain were collected with a swab, and suspended in physiological saline, and the suspension was adjusted with physiological saline to show absorbance of 0.08 to 0.13 at 625 nm as measured with an absorbance meter (produced by Amersham), and further diluted 200 times with CAMHB containing 5 mass % LHB.
(§4) In Table 11, the amino acid substitution mutations in QRDR of the strains are underlined.
The term MIC denotes the smallest concentration in the dilution series that meets the test's criterion for growth inhibition. As for `C[C@H]1COc2c(N3CCN(C)CC3)c(F)cc3c(=O)c(C(=O)O)cn1c23` [LVX, levofloxacin], the minimum inhibitory concentration (MIC) was determined as 1 µg/mL (≈ 2.77 µM).

The next assay concerns S. pneumoniae BCLSP37. Put plainly: MIC against pneumococcus, CAMHB with 5 mass % LHB. The assay is classed as cell-based, Streptococcus pneumoniae. The following applies: Streptococcus pneumoniae, BCLSP37, S. pneumoniae BCLSP37, PSSP, quinolone-resistant; ParC 79Phe, GyrA 85Lys; read-out: MIC. As to the method: as §1, §2, §3, §4
Turning to `C[C@H]1COc2c(N3CCN(C)CC3)c(F)cc3c(=O)c(C(=O)O)cn1c23` [LVX, levofloxacin], the MIC stood at 32 µg/mL (≈ 88.6 µM).

For the next assay, the system named is Staphylococcus aureus KSA36 (MRSA). Put plainly: MIC, S. aureus categories (Test Example 3). The assay is classed as cell-based.
Settings: not given
As for the experimental part: (§5) The antibacterial activities of the compound J-131CP against Staphylococcus aureus strains belonging to the five categories of Staphylococcus aureus, i.e., MSSA, MRSA, community-acquired-infection type MRSA (CA-MRSA), VISA, and VRSA, were investigated.
(§6) The compound J-131CP and quinolones were prepared in the same manner as that of Test Example 1-1.
(§7) Cell suspensions were prepared in the same manner as that of Test Example 1-1 described in the section of measurement of MIC in Test Example 1-1, except that the strains mentioned in Table 6 were used as Staphylococcus aureus, and MICs of the compound J-131CP and quinolones as the control were determined for the strains in the same manner as that of Test Example 1-1. In Table 6, the amino acid substitution mutations in QRDR of the strains are underlined.
The molecule `C[C@H]1COc2c(N3CCN(C)CC3)c(F)cc3c(=O)c(C(=O)O)cn1c23` [LVX, levofloxacin] returned a minimal inhibitory concentration (MIC) above 128 µg/mL.

For another assay, the system named is Staphylococcus aureus MW2 (CA-MRSA). Put plainly: MIC, S. aureus categories (Test Example 3). The assay is classed as cell-based. The following applies: Staphylococcus aureus, MRSA, strain MW2, CA-MRSA. As to the method: as §5, §6, §7
Take `C[C@H]1COc2c(N3CCN(C)CC3)c(F)cc3c(=O)c(C(=O)O)cn1c23` [LVX, levofloxacin]: the MIC was found to be 0.125 µg/mL (≈ 0.346 µM).

The test system of a further assay is Staphylococcus aureus ATCC29213 (MSSA). Put plainly: MIC, S. aureus categories (Test Example 3). The assay is classed as cell-based. As to conditions: strain ATCC29213, MSSA. As to the method: as §5, §6, §7
Molecule `C[C@H]1COc2c(N3CCN(C)CC3)c(F)cc3c(=O)c(C(=O)O)cn1c23` [LVX, levofloxacin] displayed an MIC of 0.125 µg/mL (≈ 0.346 µM).

The next assay has as its system Staphylococcus aureus BR2 (VISA). Put plainly: MIC, S. aureus categories (Test Example 3). Type of assay: cell-based.
Settings: not given
As to the method:
as §5, §6, §7
Turning to `C[C@H]1COc2c(N3CCN(C)CC3)c(F)cc3c(=O)c(C(=O)O)cn1c23` [LVX, levofloxacin], the lowest concentration to inhibit growth (MIC) was 8 µg/mL (≈ 22.1 µM).

The next assay relates to Staphylococcus aureus MI (VISA). Put plainly: MIC, S. aureus categories (Test Example 3). Type of assay: cell-based.
Settings: not given
As for the experimental part:
as §5, §6, §7
Regarding `C[C@H]1COc2c(N3CCN(C)CC3)c(F)cc3c(=O)c(C(=O)O)cn1c23` [LVX, levofloxacin], the lowest concentration to inhibit growth (MIC) was 32 µg/mL (≈ 88.6 µM).

A further assay relates to Staphylococcus aureus VRS1 (VRSA). Nature of the assay: MIC, S. aureus categories (Test Example 3). Type of assay: cell-based.
Settings: not given
As to the method:
as §5, §6, §7
`C[C@H]1COc2c(N3CCN(C)CC3)c(F)cc3c(=O)c(C(=O)O)cn1c23` [LVX, levofloxacin]: it took 16 µg/mL (≈ 44.3 µM) to inhibit growth (MIC).

For another assay, the system named is Staphylococcus aureus VRS3a (VRSA). Nature of the assay: MIC, S. aureus categories (Test Example 3). Type of assay: cell-based.
Settings: not given
As to the method:
as §5, §6, §7
`C[C@H]1COc2c(N3CCN(C)CC3)c(F)cc3c(=O)c(C(=O)O)cn1c23` [LVX, levofloxacin] registered an MIC of 16 µg/mL (≈ 44.3 µM).

The subject of a further assay is Staphylococcus aureus NCTC8325 (MSSA). Put plainly: MIC, S. aureus categories (Test Example 3). The assay is classed as cell-based. As to conditions: Staphylococcus aureus; strain NCTC8325, MSSA; read-out: MIC. As to the method: as §5, §6, §7
In the case of `C[C@H]1COc2c(N3CCN(C)CC3)c(F)cc3c(=O)c(C(=O)O)cn1c23` [LVX, levofloxacin], the minimum inhibitory concentration (MIC) was found to be 0.25 µg/mL (≈ 0.692 µM).

The next assay concerns Staphylococcus aureus USA300FPR (CA-MRSA). Nature of the assay: MIC, S. aureus categories (Test Example 3). The assay is classed as cell-based.
Settings: not given
As to the method: as §5, §6, §7
With `C[C@H]1COc2c(N3CCN(C)CC3)c(F)cc3c(=O)c(C(=O)O)cn1c23` [LVX, levofloxacin], the MIC stood at 4 µg/mL (≈ 11.1 µM).

The next assay deals with S. aureus MR5867. Nature of the assay: MIC against stepwise QRDR mutants. The assay is classed as cell-based. As to conditions: Staphylococcus aureus.
Text: (§8) In order to further verify that the action site of the compound J-131CP is gyrA, there were examined antibacterial activities against the MRSA, S. aureus MR5867, and stepwise-mutated strains (one-step mutant strain to three-step mutant strain) of S. aureus MR5867 in which mutation was introduced into QRDR, as well as the MSSA, S. aureus MS5952, and stepwise-mutated strains (one-step mutant strain to three-step mutant strain) of S. aureus MS5952 in which mutation was introduced into QRDR (those strains mentioned above are described in Antimicrob. Agents Chemother., 42(8), pp. 1917-1922, 1998) by the following methods. The strains used for this test example are available from the inventors of the present invention.
as §6
(§9) Then, the cell suspension was diluted 500 times with CAMHB mentioned above.
(§10) CAMHB containing each of the compound J-131CP and quinolones at each concentration was added to each well of a 96-well plate in a volume of 50 μL/well, the aforementioned cell suspension diluted 500 times was added to the well in a volume of 50 μL/well, and stationary culture was carried out overnight at 37° C. in the same manner as that of Test Example 1-1.
Take `C[C@H]1COc2c(N3CCN(C)CC3)c(F)cc3c(=O)c(C(=O)O)cn1c23` [LVX, levofloxacin]: the minimum inhibitory concentration (MIC) is 0.125 µg/mL (≈ 0.346 µM).

Another assay relates to S. aureus MS5952 two-step mutant. Nature of the assay: MIC against stepwise QRDR mutants. As to conditions: Staphylococcus aureus. The assay is classed as cell-based.
Text: as §8, §6, §9, §10
Turning to `C[C@H]1COc2c(N3CCN(C)CC3)c(F)cc3c(=O)c(C(=O)O)cn1c23` [LVX, levofloxacin], 4 µg/mL (≈ 11.1 µM) was the least that counted as inhibitory (MIC).

Another assay deals with S. aureus MS5952. Put plainly: MIC against stepwise QRDR mutants. Type of assay: cell-based. As to conditions: Staphylococcus aureus.
Text: as §8, §6, §9, §10
Molecule `C[C@H]1COc2c(N3CCN(C)CC3)c(F)cc3c(=O)c(C(=O)O)cn1c23` [LVX, levofloxacin] came in with a minimal inhibitory concentration (MIC) of 0.25 µg/mL (≈ 0.692 µM).

In a further assay the test system is S. aureus MR5867 three-step mutant. Put plainly: MIC against stepwise QRDR mutants. Type of assay: cell-based. As to conditions: Staphylococcus aureus.
Text: as §8, §6, §9, §10
Turning to `C[C@H]1COc2c(N3CCN(C)CC3)c(F)cc3c(=O)c(C(=O)O)cn1c23` [LVX, levofloxacin], the minimal inhibitory concentration (MIC) amounted to 16 µg/mL (≈ 44.3 µM).

For another assay, the system named is S. aureus MR5867 two-step mutant. Put plainly: MIC against stepwise QRDR mutants. Type of assay: cell-based. The following applies: Staphylococcus aureus.
Text: as §8, §6, §9, §10
For `C[C@H]1COc2c(N3CCN(C)CC3)c(F)cc3c(=O)c(C(=O)O)cn1c23` [LVX, levofloxacin], inhibition of growth (MIC) required 8 µg/mL (≈ 22.1 µM).

A further assay has as its system S. aureus MS5952 three-step mutant. Nature of the assay: MIC against stepwise QRDR mutants. The assay is classed as cell-based. As to conditions: Staphylococcus aureus.
Text: as §8, §6, §9, §10
In the case of `C[C@H]1COc2c(N3CCN(C)CC3)c(F)cc3c(=O)c(C(=O)O)cn1c23` [LVX, levofloxacin], 32 µg/mL (≈ 88.6 µM) was the least that counted as inhibitory (MIC).

The test system of the next assay is E. faecium RPR2. Nature of the assay: MIC against Enterococcus bacteria. Type of assay: cell-based, Enterococcus faecium. As to conditions: E. faecium RPR2, quinolone-resistant; ParC 82Ile, GyrA 84Ile 88Lys. As to the method: (§11) Antibacterial activities of the compound J-131CP against Enterococcus bacteria (Enterococcus faecium and Enterococcus faecalis) were examined by the following methods.
as §6
(§12) Cell suspensions were prepared in the same manner as that of Test Example 1-1 described in the section of measurement of MIC in Test Example 1-1, except that the Enterococcus bacterium strains mentioned in Table 8 were used instead of Staphylococcus aureus, and MICs of the compound J-131CP and quinolones as control were determined for the strains in the same manner as that of Test Example 1-1 described in the section of measurement of MIC in Test Example 1-1. In Table 8, the amino acid substitution mutations in QRDR of the strains are underlined.
Take `C[C@H]1COc2c(N3CCN(C)CC3)c(F)cc3c(=O)c(C(=O)O)cn1c23` [LVX, levofloxacin]: the minimum inhibitory concentration (MIC) was above 128 µg/mL.

Still in this assay, the particulars now being: Enterococcus faecium, RPR2.
`C[C@H]1COc2c(N3CCN(C)CC3)c(F)cc3c(=O)c(C(=O)O)cn1c23` [LVX, levofloxacin] had a minimum inhibitory concentration (MIC) above 128 µg/mL.

The subject of a further assay is E. faecium NCTC12202. Put plainly: MIC against Enterococcus bacteria. Type of assay: cell-based, Enterococcus faecium. As to conditions: Enterococcus faecium, NCTC 12202 / VRE; E. faecium NCTC12202, VRE, quinolone-susceptible; read-out: MIC. As to the method: as §11, §6, §12
For the molecule `C[C@H]1COc2c(N3CCN(C)CC3)c(F)cc3c(=O)c(C(=O)O)cn1c23` [LVX, levofloxacin], the MIC was found to be 1 µg/mL (≈ 2.77 µM).
